# Laboratory results from the Deep4Chem optical property database.
# Test: photoluminescence quantum yield (fraction); solvent given as SMILES
# [1] = in O=P(c1ccccc1)(c1ccccc1)c1ccccc1Oc1ccccc1P(=O)(c1ccccc1)c1ccccc1
structure (smiles),measurement,setting,value
Cc1ccc(-c2cc(-c3ccccc3)c3c(N)nc(N4CCCC4)c(C#N)c3n2)cc1,photoluminescence quantum yield,in CC#N,0.046
same,photoluminescence quantum yield,in c1ccccc1,0.073
CCc1ccc(-c2nc(-c3ccc(-n4c5ccccc5c5ccccc54)cc3)cc(-c3ccc(-n4c5ccccc5c5ccccc54)cc3)n2)cc1,photoluminescence quantum yield,in C1CCOC1,0.6
same,photoluminescence quantum yield,in CN(C)C=O,0.74
same,photoluminescence quantum yield,in Cc1ccccc1,0.71
same,photoluminescence quantum yield,in ClC(Cl)Cl,0.58
C[Si](C)(C)c1cc2c(cc3ccc4cccc5ccc2c3c45)[nH]1,photoluminescence quantum yield,in CCOC(C)=O,0.95
c1ccc(-[c+]2c3ccccc3oc3ccccc32)cc1,photoluminescence quantum yield,in CC#N,0.47
CC(C)(C)c1ccc(/C=C/c2ccc(N(c3ccc(/C=C/c4ccc(C(C)(C)C)cc4)cc3)c3ccc(-c4nc5ccccc5nc4-c4ccc(N(c5ccc(/C=C/c6ccc(C(C)(C)C)cc6)cc5)c5ccc(/C=C/c6ccc(C(C)(C)C)cc6)cc5)cc4)cc3)cc2)cc1,photoluminescence quantum yield,in C1CCOC1,0.72
COc1ccc(-c2cc3c(s2)c(C(C)=O)cc(=O)n3Cc2ccccc2)cc1,photoluminescence quantum yield,in CC#N,0.61
same,photoluminescence quantum yield,in ClCCl,0.99
CC[N+](CC)=c1ccc2cc3c(=O)oc4cc5c(cc4c3oc-2c1)CCCN5C,photoluminescence quantum yield,in ClCCl,0.265
same,photoluminescence quantum yield,in O,0.009
c1ccc(-c2cccc3ncc(-c4ccccc4)n23)cc1,photoluminescence quantum yield,in ClCCl,0.24
COC(=O)c1cc(=O)n(C)c2cc(-c3cc4c5c(c3)CCCN5CCC4)sc12,photoluminescence quantum yield,in CC#N,0.02
same,photoluminescence quantum yield,in CCO,0.09
same,photoluminescence quantum yield,in CN(C)C=O,0.1
same,photoluminescence quantum yield,in CO,0.3
same,photoluminescence quantum yield,in CS(C)=O,0.17
same,photoluminescence quantum yield,in ClC(Cl)Cl,0.48
same,photoluminescence quantum yield,in ClCCl,0.25
CCC1(CC)c2ccccc2-c2c1c1c(c3c2C(CC)(CC)c2cc(/C=C/c4cccs4)ccc2-3)C(CC)(CC)c2ccccc2-1,photoluminescence quantum yield,in C1CCOC1,0.23
CCN(C)c1ccc(C2=C3C(C)=CC(C)=[N+]3[B-](F)(F)n3c(C)cc(C)c32)cc1,photoluminescence quantum yield,in CO,0.44
COc1ccc(-c2[nH]c(=O)n3c2-c2ccccc2C3=O)c(OC)c1,photoluminescence quantum yield,in CC#N,0.48
same,photoluminescence quantum yield,in CO,0.39
same,photoluminescence quantum yield,in ClCCl,0.57
CCCCCCCCCC1(CCCCCCCCC)c2cc(C#Cc3ccc(/C=C/c4ccc(N(CCCCCCCC)CCCCCCCC)cc4)cc3)ccc2-c2ccc(C#Cc3ccc(/C=C/c4ccc(N(CCCCCCCC)CCCCCCCC)cc4)cc3)cc21,photoluminescence quantum yield,in Cc1ccccc1,0.61
CCN1c2ccc(-c3cc(C(F)(F)F)[nH]n3)cc2Sc2cc(-c3cc(C(F)(F)F)[nH]n3)ccc21,photoluminescence quantum yield,in C1CCOC1,0.46
same,photoluminescence quantum yield,in CC#N,0.46
same,photoluminescence quantum yield,in CN(C)C=O,0.75
same,photoluminescence quantum yield,in ClCCl,0.56
same,photoluminescence quantum yield,in c1ccccc1,0.49
COc1ccc(C2=CC(c3ccc(OC)cc3)=[O+][B-](C(C)=O)(C(C)=O)O2)cc1,photoluminescence quantum yield,in CC#N,0.7
same,photoluminescence quantum yield,in ClC(Cl)(Cl)Cl,1
F[B-]1(F)OC(c2ccccc2)=Cc2c3ccccc3c3ccccc3[n+]21,photoluminescence quantum yield,in ClC(Cl)Cl,0.131
N#Cc1c(-n2c3ccc(-c4ccccc4)cc3c3cc(-c4ccccc4)ccc32)c(-n2c3ccccc3c3ccccc32)c(-n2c3ccc(-c4ccccc4)cc3c3cc(-c4ccccc4)ccc32)c(-n2c3ccccc3c3ccccc32)c1-n1c2ccc(-c3ccccc3)cc2c2cc(-c3ccccc3)ccc21,photoluminescence quantum yield,in Cc1ccccc1,0.83
Cc1ccc(C2=C3C=C(I)C=[N+]3[B-](F)(F)n3c2cc(I)c3I)cc1,photoluminescence quantum yield,in C1CCCCC1,0.06
same,photoluminescence quantum yield,in CC#N,0.02
same,photoluminescence quantum yield,in CCO,0.026
same,photoluminescence quantum yield,in CCOC(C)=O,0.034
same,photoluminescence quantum yield,in CO,0.025
same,photoluminescence quantum yield,in OCC(F)(F)F,0.022
CCOC(=O)/N=c1/oc2cc(N(CC)CC)ccc2cc1C#N,photoluminescence quantum yield,in ClCCl,0.85
F[B-]1(F)Oc2ccc(Br)cc2-c2c3c(c4c([n+]21)CCc1ccccc1-4)CCc1ccccc1-3,photoluminescence quantum yield,in ClCCl,0.23
Oc1ccccc1/C=N/CC/N=C/c1ccccc1O,photoluminescence quantum yield,in CC#N,0.053
O=C1/C(=C\c2ccc3oc4ccccc4c3c2)S(=O)(=O)c2ccccc21,photoluminescence quantum yield,in C1CCOC1,0.037
same,photoluminescence quantum yield,in C1COCCO1,0.047
same,photoluminescence quantum yield,in CC#N,0.041
same,photoluminescence quantum yield,in CC(C)=O,0.055
same,photoluminescence quantum yield,in CCOC(C)=O,0.048
same,photoluminescence quantum yield,in CN(C)C=O,0.192
same,photoluminescence quantum yield,in CO,0.025
same,photoluminescence quantum yield,in CS(C)=O,0.209
same,photoluminescence quantum yield,in Cc1ccccc1,0.116
same,photoluminescence quantum yield,in ClC(Cl)Cl,0.036
same,photoluminescence quantum yield,in ClCCl,0.092
COc1cc(N(c2ccc(C=C(C#N)C#N)c(OC)c2)c2ccc(C=C(C#N)C#N)c(OC)c2)ccc1C=C(C#N)C#N,photoluminescence quantum yield,in C1COCCO1,0.025
same,photoluminescence quantum yield,in CC#N,0.047
same,photoluminescence quantum yield,in CC(C)=O,0.074
same,photoluminescence quantum yield,in CCOC(C)=O,0.166
same,photoluminescence quantum yield,in CN(C)C=O,0.026
same,photoluminescence quantum yield,in CO,0.043
same,photoluminescence quantum yield,in Cc1ccccc1,0.018
same,photoluminescence quantum yield,in ClC(Cl)Cl,0.025
same,photoluminescence quantum yield,in ClCCl,0.028
CCOC(=O)CN1C(=O)C2=C(c3ccc(N4CCCCC4)cc3)N(CC(=O)OCC)C(=O)C2=C1c1ccc(C#N)cc1,photoluminescence quantum yield,in CC#N,0.01
same,photoluminescence quantum yield,in CS(C)=O,0.001
same,photoluminescence quantum yield,in Cc1ccccc1,0.16
CC1(C)C(/C=C/C=C/c2cc3ccc(O)cc3oc2=O)=[N+](CCCS(=O)(=O)[O-])c2ccc(S(=O)(=O)O)cc21,photoluminescence quantum yield,in CCO,0.01
same,photoluminescence quantum yield,in CS(C)=O,0.017
same,photoluminescence quantum yield,in O,0.011
Cn1c(/C=C/c2ccc(/C=C/c3nc4ccccc4[nH]3)cc2)[n+](C)c2ccccc21,photoluminescence quantum yield,in C1CCOC1,0.157
same,photoluminescence quantum yield,in CC#N,0.109
same,photoluminescence quantum yield,in CC(C)=O,0.103
same,photoluminescence quantum yield,in CN(C)C=O,0.12
same,photoluminescence quantum yield,in CO,0.067
same,photoluminescence quantum yield,in CS(C)=O,0.114
same,photoluminescence quantum yield,in O,0.044
COC(=O)c1ccc(/C=C2\N=C(c3ccccc3)OC2=O)cc1,photoluminescence quantum yield,in C1COCCO1,0
Cc1cccc(-c2c3ccccc3c(-c3cccc(C)n3)c3ccccc23)n1,photoluminescence quantum yield,in ClCCl,0.77
c1ccc(-c2nc(-c3ccccc3)nc(-c3cc(-n4c5ccccc5c5ccccc54)c(-n4c5ccccc5c5ccccc54)c(-n4c5ccccc5c5ccccc54)c3)n2)cc1,photoluminescence quantum yield,in O=P(c1ccccc1)(c1ccccc1)c1ccc2oc3ccc(P(=O)(c4ccccc4)c4ccccc4)cc3c2c1,0.82
same,photoluminescence quantum yield,[1],1
Cc1csc2[n+]1[B-](F)(F)n1c(c3cccc4cccc1c43)=N2,photoluminescence quantum yield,in C1CCOC1,0.83
same,photoluminescence quantum yield,in CC#N,0.78
same,photoluminescence quantum yield,in CCCCCC,0.99
same,photoluminescence quantum yield,in Cc1ccccc1,0.99
same,photoluminescence quantum yield,in ClCCl,0.95
COc1cc(OC)c(C2=C3C(C)=CC(C)=[N+]3[B-](F)(F)n3c(C)cc(C)c32)c(OC)c1,photoluminescence quantum yield,in C1CCOC1,0.78
same,photoluminescence quantum yield,in CC#N,0.55
same,photoluminescence quantum yield,in CC(=O)C(C)(C)C,0.69
same,photoluminescence quantum yield,in CC(C)=O,0.8
same,photoluminescence quantum yield,in CCCCCC,0.95
same,photoluminescence quantum yield,in CCOC(C)=O,0.64
same,photoluminescence quantum yield,in CO,0.68
COc1cc(OC)c2c(c1)C(=O)c1ccccc1-2,photoluminescence quantum yield,in C1CCCCC1,0.026
same,photoluminescence quantum yield,in CC#N,0.0012
same,photoluminescence quantum yield,in CCO,0
N#Cc1cc2ccc(cc2)c2cccc3cccc(c4ccc(cc4)cc(C#N)c4ccc(cc4)c4cccc5cccc(c6ccc1cc6)c54)c32,photoluminescence quantum yield,in Cc1ccccc1,0.55
CC1(C)c2ccccc2N(c2ccccc2)c2ccc(-c3ccc(S(=O)(=O)c4ccc(-c5ccc6c(c5)C(C)(C)c5ccccc5N6c5ccccc5)cc4)cc3)cc21,photoluminescence quantum yield,[1],0.87
COc1cc(C#Cc2ccccc2)c(C#Cc2ccccc2)cc1OC,photoluminescence quantum yield,in CC#N,0.81
O=C1c2ccccc2-c2ccc(N3CCN(c4ccccc4)CC3)c3cccc1c23,photoluminescence quantum yield,in C1CCCCC1,0.424
same,photoluminescence quantum yield,in C1CCOC1,0.123
same,photoluminescence quantum yield,in C1COCCO1,0.42
same,photoluminescence quantum yield,in CC1COC(=O)O1,0.009
same,photoluminescence quantum yield,in CC#N,0.005
same,photoluminescence quantum yield,in CC(C)=O,0.011
same,photoluminescence quantum yield,in CCCCCCCCO,0.018
same,photoluminescence quantum yield,in CCCCCO,0.017
same,photoluminescence quantum yield,in CCCCO,0.014
same,photoluminescence quantum yield,in CCCO,0.021
same,photoluminescence quantum yield,in CCO,0.007
same,photoluminescence quantum yield,in CCOC(C)=O,0.108
same,photoluminescence quantum yield,in CN(C)C=O,0.005
same,photoluminescence quantum yield,in CO,0.004
same,photoluminescence quantum yield,in CS(C)=O,0.004
same,photoluminescence quantum yield,in Cc1ccccc1,0.431
same,photoluminescence quantum yield,in ClC(Cl)Cl,0.348
COc1cc(-c2ncc(-c3ccncc3)o2)cc(OC)c1OC,photoluminescence quantum yield,in ClCCl,0.54
FC(F)(F)C(F)(F)C(F)(F)C1=NC2=C(c3ccccc3)C=C3c4cc(-c5ccccc5)c5nc(C(F)(F)C(F)(F)C(F)(F)F)nc6c(-c7ccccc7)cc(c4c56)=C4C=C(c5ccccc5)C(=N1)C2C34 (stereo not drawn),photoluminescence quantum yield,in C1CCOC1,0.85
CCCCN1c2ccccc2B(c2ccccc2C(F)(F)F)c2ccccc21,photoluminescence quantum yield,in ClCCl,0.9
COC(=O)c1cccc2c1C#Cc1c(N)cccc1OCCCO2,photoluminescence quantum yield,in CC#N,0.03
same,photoluminescence quantum yield,in ClCCl,0.14
CCCCCCC1(CCCCCC)c2cc(-c3nc(-c4ccc5c(c4)C(CCCCCC)(CCCCCC)c4cc(N6c7ccccc7Sc7ccccc76)ccc4-5)nc(-c4ccc5c(c4)C(CCCCCC)(CCCCCC)c4cc(N6c7ccccc7Sc7ccccc76)ccc4-5)n3)ccc2-c2ccc(N3c4ccccc4Sc4ccccc43)cc21,photoluminescence quantum yield,in C1CCOC1,0.01
same,photoluminescence quantum yield,in CCCCCC,0.04
same,photoluminescence quantum yield,in Cc1ccccc1,0.02
same,photoluminescence quantum yield,in ClCCl,0.003
CCC1=C(C)C2=Cc3c4ccccc4c4n3[B-](c3ccncc3)(Oc3ccccc3-4)[N+]2=C1C=Cc1ccc(OC)cc1 (stereo not drawn),photoluminescence quantum yield,in CC#N,0.37
same,photoluminescence quantum yield,in CCCCCC,0.36
same,photoluminescence quantum yield,in Cc1ccccc1,0.35
same,photoluminescence quantum yield,in ClCCl,0.35
C[Si]1(C)c2ccccc2-c2ccccc21,photoluminescence quantum yield,in ClCCl,0.14
Cc1ccccc1-c1c2ccc(=[N+]3CCCCC3)cc-2oc2cc(N3CCCCC3)ccc12,photoluminescence quantum yield,in CCO,0.28
same,photoluminescence quantum yield,in ClCCl,0.89
CC(C)(C)OC(=O)COc1ccc2c(c1)oc(=O)c1c(=O)oc3ccccc3c12,photoluminescence quantum yield,in CS(C)=O,0.31
same,photoluminescence quantum yield,in ClCCl,0.008
Oc1ccccc1,photoluminescence quantum yield,in C1CCCCC1,0.09
COc1ccc(-c2csc(/C(C#N)=C/c3ccc(Cl)cc3)n2)cc1,photoluminescence quantum yield,in CC#N,0.048
C[Si]1(c2ccccc2)C(c2ccc3c(c2)c2ccccc2n3-c2ccccc2)=C(c2ccccc2)C(c2ccccc2)=C1c1ccc2c(c1)c1ccccc1n2-c1ccccc1,photoluminescence quantum yield,in C1CCOC1,0.04
